Entries after “also recorded” stand apart in the source; their conditions may differ.
Key:
[1] = system: mammary adenocarcinoma R3230AC tumors; experiment: Tumor perfusion by Laser Doppler flowmetry; assay type: in vivo, rat; set-up: key to TUMOR perfusion: 0, unchanged; ↓, decreased; ↑, increased; conditions: for tumor blood flow (perfusion), flank tumors: normoxic rats
Fischer 344 rats [2] = experiment: Mean arterial pressure and heart rate; assay type: in vivo, rat; set-up: key to SYSTEMIC MAP / SYSTEMIC HR: 0, unchanged; ↓, decreased; ↑, increased
Description: Mean arterial pressure (MAP) and heart rate (HR) were measured with a blood pressure analyzer (Digi-Med, Micro-Med, Louisville, Ky., United States of America) connected to the femoral artery cannula as described in Dewhirst et al., 1996.

[3] = system: mammary adenocarcinoma R3230AC tumors; experiment: Tumor pO2 during gas breathing; assay type: in vivo, rat
Description: (§1) Tumors were implanted in rats as described hereinabove, and the rats were set up to breathe either 100% O2, 100% O2 plus 100 parts per million ethyl nitrite (ENO), normal room air, or normal room air plus 100 ppm ENO. pO2 was monitored in the tumor or in quadriceps muscle from 30 minutes before the administration of the 100% O2/100% O2 plus 100 ppm ENO/room air/room air plus 100 ppm ENO, during 30 minutes of breathing of the gases, and for 30 minutes after the administered gas supply was removed.

quadriceps muscle [4] = experiment: Quadriceps muscle pO2 during gas breathing; assay type: in vivo, rat
Description: as §1

[5] = system: mammary adenocarcinoma R3230AC tumors; experiment: Tumor growth delay after radiation; assay type: in vivo, rat; conditions: 100 ppm ENO plus 100% O2; 2 Gy daily on days 0-4; versus 100% O2, room air, non-irradiated
Description: Tumors were implanted in rats as described hereinabove, and the tumors were irradiated daily with 2 Gy of irradiation on days 0-4. Relative tumor volumes were determined daily from day 0 to day 18 in rats that breathed room air (N=4), 100% O2 (N=4), or 100 ppm ENO plus 100% O2. As a control, relative tumor volumes for rats that breathed room air (N=3) and were not treated with radiation. were also determined.

quadriceps muscle [6] = experiment: Quadriceps muscle (systemic) perfusion by Laser Doppler flowmetry; assay type: in vivo, rat; set-up: key to SYSTEMIC perfusion: 0, unchanged; ↓, decreased; ↑, increased; conditions: for muscle blood flow (leg quadriceps): hyperoxia versus normoxia
[7] = Hb tetramer/dimer dissociation; assay type: physicochemical; conditions: assuming plasma concentration of about 6.5 μmol/L, room air
From the text: Hb dissociation from tetramers to dimers depends on Hb concentration and oxygen tension, and NO release from dimers is unresponsive to allosteric effectors (e.g., O2). […] Is there enough tetrameric SNO-Hb to sense oxygen and regulate NO delivery? Evidently yes, as a finely tuned regulation of SNO-Hb bioactivity by oxygen tension (NO release depends on local pO2) that contrasted with the O2-independent behavior of oxy-Hb was observed. That the plasma half-life of SNO on Hb was more than doubled during hyperoxia while protein clearance remained unaffected was also observed.

[8] = system: baroreceptor and peripheral vasculature; experiment: Summary of bioactivity of cell-free SNO-Hb and oxy-Hb (Table 3); assay type: in vivo, rat
tumor-feeding arterioles = experiment: Diameter of tumor-feeding arterioles in window chambers; assay type: in vivo, rat; set-up: key to TUMOR vascular diameter: 0, unchanged; ↓, decreased; ↑, increased; conditions: for TUMOR vascular diameter: IV
From the text: For i.v. infusions, the femoral artery and vein were cannulated and drugs were infused through the venous cannula. For i.a. infusions, the femoral and left carotid arteries were cannulated and drugs were infused through the carotid cannula. For window chamber experiments, the two window frames were surgically positioned in the dorsal skin flap, followed by tumor cell transplantation to the chamber tissue, as described in Dewhirst et al., 1996. Following several days of tumor growth, direct visualization of tumor-feeding arterioles was performed using intravital microscopy. Tumor-feeding arterioles in window chambers were visualized using transillumination. Arteriolar diameters were measured from videotaped images using an image-shearing monitor (IPM Inc., San Diego, Calif., United States of America).

[9] = cited from earlier work
Fischer 344 rats [10] = experiment: Blood gas and hemoglobin saturation measurements; assay type: in vivo, rat; conditions: breathing 100% O2
Description: Blood gases and Hb oxygen saturation were measured using a 1640 oximeter coupled to a 482 co-oximeter (Instrumentation Laboratories, Lexington, Mass., United States of America) from 0.5 ml samples of femoral arterial and venous blood. For tumor microvessels in window chambers, Hb saturation was calculated from transmission optical measurements of vascular absorbance using a hyperspectral imaging technique described in Sorg et al., 2005. A liquid crystal tunable filter (CRI, Inc., Woburn, Mass., United States of America) placed in front of a CCD camera (DVC Company, Austin, Tex., United States of America) was used for band-limited imaging.

[11] = i.a. and i.v. infusion, control experiments
[12] = 30 minutes breathing 100% O2 or 100% O2 plus 100 ppm ENO
[13] = 30 minutes breathing room air plus 100 ppm ENO
[14] = IV, Room air, change versus before treatment
[15] = i.v. infusion, normoxic animals
[16] = vascular pO2 at injection site low
[17] = vascular pO2 at injection site any

albumin [reference compound]
TUMOR perfusion [1, 11]: did not induce any significant or differential change | HR (Fischer 344 rats [2]; [11]): did not induce any significant or differential change | MAP (Fischer 344 rats [2]; [11]): did not induce any significant or differential change

SNO-albumin: bovine serum albumin reacted with NaNO2 (S-nitrosylated albumin) [reference compound]
tumor blood flow (perfusion), flank tumors ([1]; i.v. infusion): small increase in tumor perfusion

CCON=O [ENO, ethyl nitrite]
pO2 in tumors [3, 12]: above 10 mm Hg | pO2 in tumors [3, 13]: remained largely unchanged | pO2 in quadriceps muscle (quadriceps muscle [4]; [12]): increased rapidly | pO2 in quadriceps muscle (quadriceps muscle [4]; [13]): this effect was not seen | growth of irradiated tumors (relative tumor volume) [5]: grew more slowly

S-nitrosohemoglobin [SNO-Hb]
SYSTEMIC perfusion (quadriceps muscle [6]; IA, 100% O2): 0 | SYSTEMIC perfusion (quadriceps muscle [6]; IA, Room air): 0 | SYSTEMIC perfusion (quadriceps muscle [6]; IV, 100% O2): 0 | SYSTEMIC perfusion (quadriceps muscle [6]; IV, Room air): ↓ | muscle blood flow (quadriceps) (quadriceps muscle [6]; i.a. infusion, independently of O2 delivery): remained unaltered | muscle blood flow (leg quadriceps) (quadriceps muscle [6]; i.v. infusion): prevented under hyperoxia | muscle perfusion in the quadriceps (quadriceps muscle [6]; i.v. infusion, rats breathing room air (normoxia)): decreased muscle perfusion more than Hb; also recorded: decrease in muscle blood flow | TUMOR perfusion ([1]; IA, 100% O2): 0 | TUMOR perfusion ([1]; IA, Room air): 0 | TUMOR perfusion ([1]; IV, 100% O2): 0 | TUMOR perfusion [1, 14]: ↓* | pressor activity (tumor perfusion) ([1]; i.a. infusion, hyperoxic rats versus i.a. room air): not altered | decrease in tumor perfusion ([1]; i.a. infusion, normoxic animals, compared to i.v.): not significantly different compared to i.v. infusion | tumor perfusion, flank tumors ([1]; i.v. infusion, 100% O2 (hyperoxia) versus room air): hyperoxia abolished the reduction in tumor perfusion | tumor perfusion, window chamber tumors ([1]; i.v. infusion, hyperoxic rats): this decrease was prevented | tumor perfusion, window chamber tumors [1, 15]: potent decrease in tumor perfusion | tumor blood flow (perfusion), flank tumors ([1]; i.v. infusion): reduced perfusion | SYSTEMIC HR (Fischer 344 rats [2]; IA, 100% O2): 0 | SYSTEMIC MAP (Fischer 344 rats [2]; IA, 100% O2): ↑ | SYSTEMIC HR (Fischer 344 rats [2]; IA, Room air): 0 | SYSTEMIC MAP (Fischer 344 rats [2]; IA, Room air): ↑ | SYSTEMIC HR (Fischer 344 rats [2]; IV, 100% O2): 0 | SYSTEMIC MAP (Fischer 344 rats [2]; IV, 100% O2): ↑ | SYSTEMIC HR (Fischer 344 rats [2]; IV, Room air): 0 | SYSTEMIC MAP (Fischer 344 rats [2]; IV, Room air): 0 | HR (Fischer 344 rats [2]; i.a. infusion, normoxic and hyperoxic): remained unchanged | MAP (Fischer 344 rats [2]; i.a. infusion, from 5 minutes (normoxic) and 10 minutes (hyperoxic)): significant increase in MAP | HR (Fischer 344 rats [2]; i.v. infusion, hyperoxia): no significant effect on HR | MAP (Fischer 344 rats [2]; i.v. infusion, hyperoxia, from 10 minutes after infusion): significant increase in the MAP | HR (Fischer 344 rats [2]; [15]): No change | MAP (Fischer 344 rats [2]; [15]): No change | fraction present as tetramers [7]: about 35% | Baroreceptor effect ([8]; vascular pO2 at injection site high): inhibition | Peripheral effect ([8]; vascular pO2 at injection site high, dose-dependent effect): vasodilation | Baroreceptor effect [8, 16]: none | Peripheral effect [8, 16]: vasoconstriction | TUMOR vascular diameter (tumor-feeding arterioles; 100% O2): 0 | TUMOR vascular diameter (tumor-feeding arterioles; Room air): 0 | diameter of tumor feeding arterioles (tumor-feeding arterioles; i.v. infusion, normoxic or hyperoxic rats, window chamber): no significant change | KD (tetramer/dimer), R conformer ([9]; R conformer): 3 µM | KD (tetramer/dimer), T conformer ([9]; T conformer): 0.003 µM

oxyhemoglobin [oxy-Hb, reference compound]
SYSTEMIC perfusion (quadriceps muscle [6]; IV, 100% O2): ↓ | SYSTEMIC perfusion (quadriceps muscle [6]; IV, Room air): ↓ | muscle blood flow (leg quadriceps) (quadriceps muscle [6]; i.v. infusion): hyperoxia did not modify the effect of oxy-Hb in muscles | TUMOR perfusion ([1]; IV, 100% O2): ↓ | TUMOR perfusion [1, 14]: ↓ | tumor blood flow (perfusion), flank tumors ([1]; i.v. infusion): rapid and sustained decrease in tumor blood flow | SYSTEMIC MAP (Fischer 344 rats [2]; IV, 100% O2): 0 | SYSTEMIC MAP (Fischer 344 rats [2]; IV, Room air): 0 | MAP (Fischer 344 rats [2]; i.v. infusion, normoxia or hyperoxia): no effect on MAP | HR (Fischer 344 rats [2]; i.v. infusion, from 5 minutes after infusion, more severe in hyperoxic than in normoxic rats): induced bradycardia | Baroreceptor effect [8, 17]: none | Peripheral effect [8, 17]: vasoconstriction

O=O [100% O2]
pO2 in tumors [3, 12]: insufficient to raise the pO2 to above 10 mm Hg | effects of hyperoxia alone on tumor and muscle perfusion ([1]; 100% O2 alone, before drug infusion): transient decrease that resumed within 5 minutes (i.e., before drug infusion) to no change | pO2 in quadriceps muscle (quadriceps muscle [4]; [12]): increased rapidly | Femoral artery HbO2 (Fischer 344 rats [10]): 98.2 ± 0.1 % | Femoral artery pCO2 (Fischer 344 rats [10]): 56.9 ± 1.7 mm Hg | Femoral artery pO2 (Fischer 344 rats [10]): 435.5 ± 34.7 mm Hg | Femoral vein HbO2 (Fischer 344 rats [10]): 75.8 ± 3.4 % | Femoral vein pCO2 (Fischer 344 rats [10]): 72.0 ± 2.1 mm Hg | Femoral vein pO2 (Fischer 344 rats [10]): 69.8 ± 3.0 mm Hg | Tumor artery HbO2 (Fischer 344 rats [10]; window chamber): 89 ± 2 % | Tumor vein HbO2 (Fischer 344 rats [10]; window chamber): 78 ± 3 % | change in HR (Fischer 344 rats [2]; hyperoxia alone, N=19): −3% | change in MAP (Fischer 344 rats [2]; hyperoxia alone, N=19): +1% | diameter of tumor feeding arterioles (tumor-feeding arterioles; hyperoxia alone, t=-5 to t=0): no vascular effect

Reference: patent publication US8466110B2, “Use of an agent that restores tissue perfusion and oxygenation” (Duke University, priority 2005, dated 2013)
